Data published in patent US20200060276A1, “THIAZOLE COMPOUND AND HERBICIDE” (OAT Agrio Co., Ltd., priority 2017, published 2020).

What was measured:
Assay type in all cases: in vivo
Monochoria vaginalis = test: Test for Herbicidal Effect in Flooding Treatment (#1), MONVA; conditions: flooding treatment at seeding, dose 2 kg/ha, visual observation on day 21
Procedure: (#1) Test for Herbicidal Effect in Flooding Treatment: Styrol cups each having an opening diameter of 8 cm (about 52 cm^2) were respectively filled with soil (45 ml) which had been passed through a sieve (2 mm). Water (about 115 ml) was mixed with the soil such that the soil was flooded. After the soil stood still for 24 hours, Monochoria vaginalis, Echinochloa crus-galli (L.) P. Beauv. var. formosensis Ohwi, Cyperus difformis (umbrella sedge), and Scirpus juncoides were seeded. Each of the compounds of the present invention was dissolved in acetone, and the obtained product was then diluted with water containing Tween 80®. Each of the resultant chemical solutions was dropped on the entire surface of an associated one of treatment sections, so that each section was treated with 1 ml of the respective chemical solution (a dose of 2 kg/ha). After the treatment, the plants were grown in a glasshouse. On day 21, a survey was conducted on the herbicidal activity by visual observation, and evaluation was made according to the following criteria. 0: Growth inhibition effect is less than 10%. 1: Growth inhibition effect is equal to or greater than 10%, and less than 30%. 2; Growth inhibition effect is equal to or greater than 30%, and less than 50%. 3: Growth inhibition effect equal to or greater than 50%, and less than 70%. 4: Growth inhibition effect is equal to or greater than 70%, and less than 90%. 5: Growth inhibition effect is equal to or greater than 90%, or complete withering is achieved. ECHDG=Echinochloa crus-galli (L.) P. Beauv. var. formosensis Ohwi, MONVA=Monochoria vaginalis, SCIJU=Scirpus juncoides, CYMIC=Cyperus microiria.

[1] = test system: Echinochloa crus-galli (L.) P. Beauv. var. formosensis Ohwi; test: Test for Herbicidal Effect in Flooding Treatment (#2), ECHDG at 2-2.5 leaf stage; conditions: for ECHDG (2-2.5L) #2 herbicidal effect (growth inhibition grade): flooding treatment at 2-2.5 leaf stage, dose 0.2 kg/ha, visual observation on day 21
How it was run: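 Flooded muddy soil was seeded with the weed, and at 2–2.5 leaf stage compound in acetone/Tween 80 water was dropped on the water surface at 0.2 kg/ha. Plants were kept in a glasshouse and scored visually on day 21 from 0 (<10% growth inhibition) to 5 (≥90% or complete withering).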

Scirpus juncoides = test: Test for Herbicidal Effect in Flooding Treatment (#1), SCIJU; conditions: flooding treatment at seeding, dose 2 kg/ha, visual observation on day 21
How it was run: (§1)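 Visual scores from 0 (<10% inhibition) to 5 (≥90% or complete withering) were taken 21 days after treatment of glasshouse-grown plants. Seeds were sown in soil flooded for 24 h beforehand, and compound was applied dropwise onto the surface at 2 kg/ha as an acetone solution diluted in water with Tween 80.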

[2] = test system: Echinochloa crus-galli (L.) P. Beauv. var. formosensis Ohwi; test: Test for Herbicidal Effect in Flooding Treatment (#1), ECHDG; conditions: flooding treatment at seeding, dose 2 kg/ha, visual observation on day 21
How it was run: as §1

SMILES: COc1cccc(C(F)(F)F)c1CS(=O)(=O)c1ncc(Cl)s1 [Compound 1C-7]
- MONVA #1 herbicidal effect (growth inhibition grade) (Monochoria vaginalis): 5 (Growth inhibition effect is equal to or greater than 90%, or complete withering is achieved)
- ECHDG (2-2.5L) #2 herbicidal effect (growth inhibition grade) [1]: 5 (Growth inhibition effect is equal to or greater than 90%, or complete withering is achieved)
- SCIJU #1 herbicidal effect (growth inhibition grade) (Scirpus juncoides): 5 (Growth inhibition effect is equal to or greater than 90%, or complete withering is achieved)
- ECHDG #1 herbicidal effect (growth inhibition grade) [2]: 5 (Growth inhibition effect is equal to or greater than 90%, or complete withering is achieved)

SMILES: CCOc1ccc(Cl)c(F)c1CS(=O)(=O)c1ncc(Cl)s1 [Compound 1C-32]
- MONVA #1 herbicidal effect (growth inhibition grade) (Monochoria vaginalis): 5 (Growth inhibition effect is equal to or greater than 90%, or complete withering is achieved)
- ECHDG (2-2.5L) #2 herbicidal effect (growth inhibition grade) [1]: 5 (Growth inhibition effect is equal to or greater than 90%, or complete withering is achieved)
- SCIJU #1 herbicidal effect (growth inhibition grade) (Scirpus juncoides): 5 (Growth inhibition effect is equal to or greater than 90%, or complete withering is achieved)
- ECHDG #1 herbicidal effect (growth inhibition grade) [2]: 5 (Growth inhibition effect is equal to or greater than 90%, or complete withering is achieved)

SMILES: CCOc1ccc(Cl)c(Cl)c1CS(=O)(=O)c1ncc(Cl)s1 [Compound 1C-33, 5-chloro-2-[(2-ethoxy-5,6-dichlorophenyl)(methanesulfonyl)]-1,3-thiazole]
- MONVA #1 herbicidal effect (growth inhibition grade) (Monochoria vaginalis): 5 (Growth inhibition effect is equal to or greater than 90%, or complete withering is achieved)
- inhibition at 200 g/ha ([1]; Echinochloa crus-galli, 504 h, flooding treatment (#2), ECHDG at 2-2.5 leaf stage, dose of 0.2 kg/ha, day 21, visual observation, read-out: growth inhibition effect): ≥ 90%
- ECHDG (2-2.5L) #2 herbicidal effect (growth inhibition grade) [1]: 5 (Growth inhibition effect is equal to or greater than 90%, or complete withering is achieved)
- SCIJU #1 herbicidal effect (growth inhibition grade) (Scirpus juncoides): 5 (Growth inhibition effect is equal to or greater than 90%, or complete withering is achieved)
- ECHDG #1 herbicidal effect (growth inhibition grade) [2]: 5 (Growth inhibition effect is equal to or greater than 90%, or complete withering is achieved)

SMILES: O=S(=O)(Cc1c(Cl)cccc1OC(F)F)c1ncc(Cl)s1 [Compound 1C-42]
- MONVA #1 herbicidal effect (growth inhibition grade) (Monochoria vaginalis): 5 (Growth inhibition effect is equal to or greater than 90%, or complete withering is achieved)
- ECHDG (2-2.5L) #2 herbicidal effect (growth inhibition grade) [1]: 5 (Growth inhibition effect is equal to or greater than 90%, or complete withering is achieved)
- SCIJU #1 herbicidal effect (growth inhibition grade) (Scirpus juncoides): 5 (Growth inhibition effect is equal to or greater than 90%, or complete withering is achieved)
- ECHDG #1 herbicidal effect (growth inhibition grade) [2]: 5 (Growth inhibition effect is equal to or greater than 90%, or complete withering is achieved)

SMILES: O=S(=O)(Cc1c(F)cccc1OC(F)F)c1ncc(Cl)s1 [Compound 1C-43]
- MONVA #1 herbicidal effect (growth inhibition grade) (Monochoria vaginalis): 5 (Growth inhibition effect is equal to or greater than 90%, or complete withering is achieved)
- ECHDG (2-2.5L) #2 herbicidal effect (growth inhibition grade) [1]: 5 (Growth inhibition effect is equal to or greater than 90%, or complete withering is achieved)
- SCIJU #1 herbicidal effect (growth inhibition grade) (Scirpus juncoides): 5 (Growth inhibition effect is equal to or greater than 90%, or complete withering is achieved)
- ECHDG #1 herbicidal effect (growth inhibition grade) [2]: 5 (Growth inhibition effect is equal to or greater than 90%, or complete withering is achieved)

SMILES: O=S(=O)(Cc1c(F)cc(F)cc1OC(F)F)c1ncc(Cl)s1 [Compound 1C-44]
- MONVA #1 herbicidal effect (growth inhibition grade) (Monochoria vaginalis): 5 (Growth inhibition effect is equal to or greater than 90%, or complete withering is achieved)
- ECHDG (2-2.5L) #2 herbicidal effect (growth inhibition grade) [1]: 5 (Growth inhibition effect is equal to or greater than 90%, or complete withering is achieved)
- SCIJU #1 herbicidal effect (growth inhibition grade) (Scirpus juncoides): 5 (Growth inhibition effect is equal to or greater than 90%, or complete withering is achieved)
- ECHDG #1 herbicidal effect (growth inhibition grade) [2]: 5 (Growth inhibition effect is equal to or greater than 90%, or complete withering is achieved)
